# Data reported in patent publication US11116774B2, “Modulators of toll-like receptors for the treatment of HIV” (Gilead Sciences, Inc., priority 2014, dated 2021).
# Where “and” joins values, the source holds several entries; their conditions need not be identical. Equal values may be shown once.
# Legend:
# [1] = tested on: peripheral CD4 lymphocytes (CD3+CD4+CD8−); experiment: Peripheral lymphocyte activation, CD69 by flow cytometry: CD4 lymphocytes (Example 206); assay type: in vivo, rhesus macaque
# Source text: During the course of treatment with the compound of Example 4 as described in Example 204, peripheral lymphocyte activation was monitored in the groups dosed with the compound of Example 4 or the dosing vehicle of Example 201 (placebo), by measuring the expression of the early activation marker CD69 on various lymphocyte subsets by flow cytometry methodology. This methodology was used to quantify the percentage of immune cell subsets expressing the early activation marker. Standard data acquisition techniques were employed on a flow cytometer and by the use of antibodies conjugated to fluorescent molecules where the antibodies recognize rhesus macaque cell surface proteins on various immune cell subsets. In animals dosed with the compound of Example 4, whole blood samples were collected for each dose at various time points both at pre- and post-administration of compound. Total PBMCs were stained in the whole blood samples using antibodies that were chosen to be reactive to rhesus CD3, CD4, CD8, NKG2A, CD16 and CD56, each conjugated to different fluorescent probes to delineate CD3+CD4+CD8− lymphocytes, CD3+CD4−CD8+ lymphocytes and CD3-CD8+ NKG2A+CD16+ CD56+ NK cells. The flow cytometry data presented herein are from animals treated with the compound of Example 4.
# SIVmac251 = experiment: TLR7 modulating compound in cART treated SIV+ rhesus with undetectable plasma viremia: plasma SIV RNA during dosing and after cART cessation (Example 204); assay type: in vivo, Indian rhesus macaques (Macaca mulatta); settings: for Plasma SIV RNA: 0.3 mg/kg oral, on cART
# Procedure: A group of 10 Indian rhesus macaques (Macaca mulatta) were treated with the compound of Example 4 or dosing vehicle of Example 201 (placebo group) in a multiple dose, dose escalation study. The macaques were infected with simian immunodeficiency virus (SIVmac251) by repeat low-dose rectal mucosal challenge. Beginning on day 65 post-infection, after establishment of peak viremia and an early viral chronic set point, the animals were treated with a the cART by sub-cutaneous injection at 1 mL/kg, the administration of which was for approximately one year. During the time of cART administration plasma viral loads decreased to undetectable levels (SIV gag RNA<50 copies/mL) by Day 168 post-infection, and were maintained for approximately 5 months prior to administration of the compound of Example 4 by use of daily cART. In addition, animals were maintained on the same cART regimen when dosed with the compound of Example 4. The amount of antiretrovirals administered to each animal, on a daily basis, in the cART formulation were 20 mg/kg tenofovir, 50 mg/kg emtricitibine (FTC), and 2.5 mg/kg dolutegravir. The animals were administered cART daily from approximately day 65 post-infection, through viral suppression and administration of the compound of Example 4 until approximately two weeks post-last dose of the compound from Example 4 at which time cART was stopped to monitor plasma viral load rebound kinetics.
# Beginning on Day 317 post-infection, the animals were dosed once every other week with either the compound of Example 4 or dosing vehicle of Example 201 (placebo group). Four animals were dosed with the compound of Example 4, prepared as described in Example 201. The first week, 1 mL/kg of the 0.1 mg/mL formulation was dosed, corresponding to a dose of 0.1 mg/kg. The third week, 1 mL/kg of the 0.2 mg/mL formulation was dosed, corresponding to a dose of 0.2 mg/kg. On weeks five through thirteen, 1 mL/kg of the 0.3 mg/mL formulation was dosed, corresponding to a dose of 0.3 mg/kg (seven doses in total). The other six animals were controls, of which three were given seven doses of saline by oral gavage once every two weeks; the other three animals were left untreated. Approximately two weeks following the last dose of the compound of Example 4, cART was stopped in the three saline-dosed placebo animals and the four animals who had received the compound of Example 4. Approximately one month later, cART was stopped in the three untreated control animals. Following cART cessation viral loads were monitored for a period of six months.
# Each formulation of the compound of Example 4 or dosing vehicle of Example 201 was thawed at room temperature prior to dosing. Animals were dosed by oral gavage via nasogastric tube.
# Plasma viral loads (expressed as SIV RNA copies per mL of plasma) were determined by quantitative RT-PCR of the SIV RNA measuring the gag gene transcripts at various times throughout the study. Viral loads for each animal for each study day relative to time of administration of the first dose of the compound of Example 4 are depicted in FIG. 3; dosing days are shown by the arrows on the horizontal x-axis.
# After two weeks following the last dose of study drug, cART therapy was also stopped in all dosed (placebo dosed included) animals. In the untreated control group of animals, cART was stopped 30 days later. Table 2 denotes the average viral load chronic set point from day 42-81 following cessation of cART for each of the animals in the study. […] However, when comparing the pre-cART plasma SIV RNA chronic set point to the post-cART cessation chronic set point within the animals administered the compound of Example 4 this was approximately ˜0.5 log10 lower (mean change for all animals treated with the compound of Example 4) than the change observed in those animals in the placebo group (mean change for all animals administered dosing vehicle of Example 201).
smiles,measurement,setting,value
CCCCOc1nc(N)c2c(n1)N(Cc1ccc(CN3CCCC3)cc1)CC(=O)N2 [Example 4],mean maximum percent change in CD69 expression on CD4 lymphocytes,[1]; all subsequent doses,1.7%
same,mean maximum percent change in CD69 expression on CD4 lymphocytes,"[1]; dose 0.1 mg/kg, any time point (rise 24 to 72 hours post-dose), pre-dose range 0.5-1.7%",1.1%
same,mean maximum percent change in CD69 expression on CD4 lymphocytes,"[1]; dose 0.2 mg/kg, pre-dose range 0.5-2%",1.5%
same,mean maximum percent change in CD69 expression on CD4 lymphocytes,"[1]; first dose of 0.3 mg/kg, pre-dose range 0.6-2.5%",2.3%
same,Plasma SIV RNA,"SIVmac251; Dose 4, 1 day post-dose",<50 copies/mL
same,Plasma SIV RNA,"SIVmac251; Dose 4, 3 days post-dose",<50 copies/mL
same,Plasma SIV RNA,"SIVmac251; Dose 4, 7 days post-dose",<50 copies/mL
same,Plasma SIV RNA,"SIVmac251; Dose 4, Pre",<50 copies/mL
same,Plasma SIV RNA,"SIVmac251; Dose 5, 2 days post-dose",344 copies/mL and 361 copies/mL and 563 copies/mL and 623 copies/mL
same,Plasma SIV RNA,"SIVmac251; Dose 5, 7 days post-dose",<50 copies/mL
same,Plasma SIV RNA,"SIVmac251; Dose 5, Pre",<50 copies/mL
same,Plasma SIV RNA,"SIVmac251; Dose 6, 7 days post-dose",<50 copies/mL
same,Plasma SIV RNA,"SIVmac251; Dose 6, Pre",<50 copies/mL
same,Plasma SIV RNA,"SIVmac251; Dose 7, 7 days post-dose",<50 copies/mL
same,Plasma SIV RNA,"SIVmac251; Dose 7, Pre",<50 copies/mL
same,time virus levels remained undetectable after the last dose,SIVmac251; SIV+ rhesus on cART,13 days
same,plasma virus levels returned to baseline prior to the following dose,"SIVmac251; SIV+ rhesus on cART, 0.3 mg/kg doses",< 50 copies per mL
same,time after dose at which detectable plasma virus was observed,"SIVmac251; SIV+ rhesus on cART, after each of the last three doses at 0.3 mg/kg, oral, once every other week",24 to 72 h
same,"pre-cART to post-cART cessation plasma SIV RNA chronic set point change, lower than the change in the placebo group","SIVmac251; mean change for all treated animals, set point day 42-81 following cessation of cART",~0.5 log10
same,Mean Change in Chronic Set Point,SIVmac251; mean of the four dosed animals,−1.26 -log10 copy/mL
same,Plasma SIV RNA Chronic Set Point Day 42-81 Post-cART Cessation,"SIVmac251; per animal, after seven doses (0.1, 0.2, 0.3 mg/kg) every other week","3,553 copy/mL and 10,062 copy/mL and 20,146 copy/mL and 24,527 copy/mL"
same,Plasma SIV RNA Chronic Set Point Day 42-63 Pre-cART,"SIVmac251; per animal, baseline before cART and before dosing","237,667 copy/mL and 76,833 copy/mL and 156,333 copy/mL and 666,333 copy/mL"
same,Change in Chronic Set Point,"SIVmac251; per animal, post-cART cessation versus pre-cART",−1.83 -log10 copy/mL and −0.88 -log10 copy/mL and −0.89 -log10 copy/mL and −1.43 -log10 copy/mL
